Source: US7253159B2, “Methods and compositions for immunomodulation using CD1 antigens” (The Brigham and Women's Hospital, Inc., priority 2003, dated 2007)

Key:
[1] = test system: CD1a-restricted T cell lines (J.RT-3/CD8-2 cells); format: cell-based; conditions: FIG. 7, comparison between homologs
CD1c transfectants = format: cell-based; conditions: test for mitogen effects
[2] = Iron-bound or unbound form detected by mass spectrometry; format: physicochemical; conditions: mass spectrometry: [M+Fe−2H]+ at m/z 923.5 or proton adduct at m/z 838.6
Text: The newly discovered antigens share some structural homology to mycobactin siderophores but lack two hydroxyl groups present in mycobactins, which confer upon mycobactins their ability to bind iron.

CD1b transfectants = format: cell-based; conditions: test for mitogen effects
polyclonal T cells = assay: Activation of polyclonal T cells; format: cell-based; conditions: test for mitogen effects
[3] = test system: J.RT-3 T lymphoblastoid cells / CD1a; format: cell-based
CD1a-restricted T cells = assay: CD1a-restricted T cell activation assay (CD8-2 T cell line); format: cell-based

Row | Molecule | T cell response (ability to activate T cells) [1] | activation with CD1c transfectants (CD1c transfectants) | form detected (iron-bound or unbound) [2] | activation with CD1b transfectants (CD1b transfectants) | activation of polyclonal T cells (polyclonal T cells) | calcium flux (activation) ([3]; […], Fura Red and Fluo-4, flow cytometry) | activation (calcium flux) in control settings ([3]; antigen, TCR or CD1a omitted, or cells not subjected to centrifugation (spin)) | CD1a-restricted T cell response (recognition by T cells) (CD1a-restricted T cells)
1 | CCCCCCCCCCCCCCCCCC(=O)NCCCCC(NC(=O)C1(C)COC(c2ccccc2O)=N1)C(=O)OC(C)CC(=O)NC1CCCCNC1=O (stereo not drawn) [DDM812] | weaker ability to activate T cells | – | – | – | – | – | – | –
2 | CCCCCCCCCCCCCCC/C=C\C(=O)NCCCCC(NC(=O)C1(C)COC(c2ccccc2O)=N1)C(=O)OC(C)CC(=O)NC1CCCCNC1=O (stereo not drawn) [DDM838, didehydroxymycobactin] | most potent | not above to activate | unbound form | not above to activate | not above to activate | Strong calcium flux | No activation | –
3 | CCCCCCCCCCCCCCCCCCCC(=O)NCCCCC(NC(=O)C1(C)COC(c2ccccc2O)=N1)C(=O)OC(C)CC(=O)NC1CCCCNC1=O (stereo not drawn) [DDM840] | weaker ability to activate T cells | – | – | – | – | – | – | –
4 | mycobactin [reference compound] | not recognized | – | iron-bound form | – | – | – | – | did not stimulate
